Test results published in patent US12568967B2, “Compositions comprising pyridine carboxylate herbicides with synthetic auxin herbicides or auxin transport inhibitors” (priority 2018, dated 2026).
Read-outs that look alike come from different tables or passages of the source.

Assays:
[1] = test system: Veronica hederifolia (ivyleaf speedwell, VERHE); test: Greenhouse postemergence trial VERHE; type: in vivo
[2] = test system: Chenopodium album L. (common lambsquarters, CHEAL); test: Greenhouse postemergence trial CHEAL; type: in vivo;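 also: greenhouse plants sprayed at second to third true leaf stage, injury rated by eye after 20-22 d versus solvent-blank sprayed controls, 0 = no injury, 100 = complete kill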
[3] = test system: Ipomoea hederacea (ivyleaf morningglory, IPOHE); test: Greenhouse postemergence trial IPOHE; type: in vivo
Protocol: (§1) Seeds of the desired test plant species were planted in a 90:10% v/v (volume/volume) mixture of PRO-MIX® BX (Premier Tech Horticulture, Quakertown, PA, USA) and PROFILE® GREENS GRADE™ (Profile Products LLC, Buffalo Grove, IL, USA) planting mixture, which typically has a pH of 5.2 to 6.2 and an organic matter content of at least 50 percent, in plastic pots with a surface area of 103.2 square centimeters (cm^2). […] The plants were grown for 7-36 days (d) in a greenhouse with an approximate 14-hour (h) photo-period which was maintained at about 23° C. during the day and 22° C. during the night. Nutrients and water were added on a regular basis and supplemental lighting was provided with overhead metal halide 1000-Watt lamps as necessary. The plants were employed for testing when they reached the second or third true leaf stage.
(§2) Emulsifiable concentrates of each of each pyridine carboxylate herbicide (Compound A or Compound B) were prepared at 100 grams acid equivalent per liter (g ae/L). The emulsifiable concentrates also included a safener, cloquintocet-mexyl, at 120 grams active ingredient per liter (g ai/L), unless otherwise noted below. An aliquot of each emulsifiable concentrate was placed in a 25 mL glass vial and diluted with an aqueous mixture of 1.25% (v/v) ACTIROB® B esterified rapeseed oil (Bayer Crop Science, Research Triangle Park, NC, USA) or MSO® Concentrate with LECI-TECH® methylated soybean oil (Loveland Products, Loveland, CO, USA) to obtain concentrated stock solutions at the highest application rate for each herbicide, based upon a 12 milliliter (mL) application volume at a rate of 187 liters per hectare (L/ha). The concentrated stock solutions were further diluted with an aqueous mixture of 1.25% v/v ACTIROB® B or MSO® Concentrate with LECI-TECH® to obtain stock solutions at reduced application rates for each herbicide. Spray solutions of the herbicide combinations (Compound A or Compound B plus synthetic auxin herbicide or auxin transport inhibitor) were prepared by adding weighed amounts or aliquots of the synthetic auxin herbicide or auxin transport inhibitor to the stock solutions of Compound A or Compound B to form 12-mL spray solutions in two-way combinations.
(§3) The spray solutions were applied to the plant material with an overhead Mandel track sprayer equipped with 8002E nozzles calibrated to deliver 187 L/ha over an application area of 0.503 square meters (m^2) at a spray height of 18 inches (43 centimeters (cm)) above the average plant canopy. Control plants were sprayed in the same manner with the solvent blank. All pyridine carboxylate herbicide (component a) application rates are given as “g ae/ha” and all synthetic auxin herbicide or auxin transport inhibitor (component b) application rates are given as “g ai/ha.”
(§4) The treated plants and control plants were placed in a greenhouse as described above and watered by sub-irrigation to prevent wash-off of the test compounds. After 20-22 d, the condition of the test plants as compared with that of the control plants was determined visually and scored on a scale of 0 to 100 percent where 0 corresponds to no injury and 100 corresponds to complete kill.

[4] = test system: Cirsium arvense (Canadian thistle, CIRAR); test: Greenhouse postemergence trial CIRAR; type: in vivo
Protocol: as §1, §2, §3, §4

[5] = test system: Rumex obtusifolius (broad-leaf dock, RUMOB); test: Greenhouse postemergence trial RUMOB; type: in vivo
[6] = test system: Kochia scoparia (kochia, KCHSC); test: Greenhouse postemergence trial KCHSC; type: in vivo
[7] = test system: Helianthus annuus (common sunflower, HELAN); test: Greenhouse postemergence trial HELAN; type: in vivo
[8] = test system: Triticum aestivum (spring wheat, TRZAS); type: in vivo
[9] = test system: Polygonum convolvulus (wild buckwheat, POLCO); test: Greenhouse postemergence trial POLCO; type: in vivo
[10] = test system: Stellaria media (chickweed, STEME); test: Greenhouse postemergence trial STEME; type: in vivo
Protocol: as §1, §2, §3, §4

[11] = test system: Papaver rhoeas (corn poppy), herbicide-resistant (PAPRH-R); test: Greenhouse postemergence trial PAPRH-R; type: in vivo
[12] = test system: Hordeum vulgare (spring barley, HORVS); type: in vivo
Protocol: as §1, §2, §3, §4

[13] = test system: Veronica persica (bird's-eye speedwell, VERPE); test: Greenhouse postemergence trial VERPE; type: in vivo; conditions: Compound B 10 g/ha (Table 39)
Protocol: as §1, §2, §3, §4

[14] = test system: Viola tricolor (wild pansy, VIOTR); test: Greenhouse postemergence trial VIOTR;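 also: greenhouse plants sprayed at second to third true leaf stage, injury rated visually after 20-22 d against solvent-blank sprayed controls, 0 meaning no injury and 100 complete kill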
Protocol: as §1, §2, §3, §4

[15] = test system: Glycine max (volunteer soybean, GLXMA); test: Greenhouse postemergence trial GLXMA; type: in vivo
Protocol: as §1, §2, §3, §4

[16] = test system: Brassica napus (winter rape, BRSNW); test: Greenhouse postemergence trial BRSNW; type: in vivo
[17] = test system: Abutilon theophrasti (velvetleaf, ABUTH); test: Greenhouse postemergence trial ABUTH; type: in vivo
Protocol: as §1, §2, §3, §4

[18] = test system: Amaranthus retroflexus (pigweed, AMARE); test: Greenhouse postemergence trial AMARE; type: in vivo;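 also: Greenhouse-grown plants sprayed at second to third true leaf stage, injury rated by eye after 20-22 d versus solvent-blank sprayed controls, 0 = no injury, 100 = complete kill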
[19] = test system: Matricaria discoidea (pineapple weed, MATMT); test: Greenhouse postemergence trial MATMT; type: in vivo
[20] = test system: Matricaria chamomilla (wild chamomile, MATCH); test: Greenhouse postemergence trial MATCH; type: in vivo;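 also: greenhouse plants sprayed at second to third true leaf stage, injury rated by eye 20-22 d later versus solvent-blank controls on 0–100 scale, 0 no injury, 100 complete kill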
Protocol: (§5) The plants were grown for 7-36 days (d) in a greenhouse with an approximate 14-hour (h) photo-period which was maintained at about 23° C. during the day and 22° C. during the night. Nutrients and water were added on a regular basis and supplemental lighting was provided with overhead metal halide 1000-Watt lamps as necessary. The plants were employed for testing when they reached the second or third true leaf stage.
(§6) The emulsifiable concentrates also included a safener, cloquintocet-mexyl, at 120 grams active ingredient per liter (g ai/L), unless otherwise noted below.
(§7) Control plants were sprayed in the same manner with the solvent blank. All pyridine carboxylate herbicide (component a) application rates are given as “g ae/ha” and all synthetic auxin herbicide or auxin transport inhibitor (component b) application rates are given as “g ai/ha.”
as §4

[21] = test system: Sinapis arvensis (wild mustard, SINAR); test: Greenhouse postemergence trial SINAR; type: in vivo; conditions: SINAR; alone 280 g/ha
[22] = test system: Lamium purpureum (purple deadnettle, LAMPU); test: Greenhouse postemergence trial LAMPU; conditions: c1-3 Compound A 7.5/10/15; c4-6 Clopyralid 30/60/120; c7-9, c10-12, c13-15 A 7.5/10/15 + Clopyralid 30, 60, 120 g/ha
Protocol: as §5, §6, §7, §4

[23] = test system: Matricaria inodora (false chamomile, MATIN); test: Greenhouse postemergence trial MATIN; type: in vivo; conditions: c1-3 Compound A 7.5/10/15; c4-6 Clopyralid 30/60/120; c7-9, c10-12, c13-15 A 7.5/10/15 + Clopyralid 30, 60, 120 g/ha
Protocol: as §1, §2, §3, §4

[24] = test system: Galium aparine (cleavers, GALAP); test: Greenhouse postemergence trial GALAP; type: in vivo; conditions: c1-3 Compound A 7.5/10/15; c4-6 Clopyralid 30/60/120; c7-9, c10-12, c13-15 A 7.5/10/15 + Clopyralid 30, 60, 120 g/ha
Protocol: as §1, §2, §3, §4

[25] = test system: Capsella bursa-pastoris (shepherd's purse, CAPBP); test: Greenhouse postemergence trial CAPBP; type: in vivo; conditions: c1-3 Compound A 7.5/10/15; c4-6 Clopyralid 30/60/120; c7-9, c10-12, c13-15 A 7.5/10/15 + Clopyralid 30, 60, 120 g/ha
Protocol: as §1, §2, §3, §4

[26] = test system: Papaver rhoeas (corn poppy, PAPRH); test: Greenhouse postemergence trial PAPRH; type: in vivo; conditions: c1-3 Compound A 7.5/10/15; c4-6 Clopyralid 30/60/120; c7-9, c10-12, c13-15 A 7.5/10/15 + Clopyralid 30, 60, 120 g/ha
[27] = c1-3 Compound A 7.5/10/15, c4-6 Clopyralid 30/60/120, c7-9, c10-12, c13-15 A 7.5/10/15 + Clopyralid 30, 60, 120 g/ha

Compound: C#CCOC(=O)c1nc(-c2ccc3cc[nH]c3c2F)c(F)c(N)c1Cl [Compound B, propargyl 4-amino-3-chloro-5-fluoro-6-(7-fluoro-1H-indol-6-yl)pyridine-2-carboxylate]
- VERHE % visual injury Obs ([1]; Compound B 10 g/ha (Table 39)): 70%
- CHEAL % visual injury Obs ([2]; Compound B 10 g/ha (Table 40)): 93%
- CHEAL % visual injury Obs ([2]; Compound B 10 g/ha (Table 41)): 93%
- IPOHE % visual injury Obs ([3]; Compound B 10 g/ha (Table 40)): 0%
- IPOHE % visual injury Obs ([3]; Compound B 10 g/ha (Table 41)): 0%
- CIRAR % visual injury Obs ([4]; Compound B 10 g/ha (Table 36)): 25%
- CIRAR % visual injury Obs ([4]; Compound B 10 g/ha (Table 37)): 25%
- CIRAR % visual injury Obs ([4]; Compound B 10 g/ha (Table 40)): 55%
- CIRAR % visual injury Obs ([4]; Compound B 10 g/ha (Table 41)): 55%
- RUMOB % visual injury Obs ([5]; Compound B 10 g/ha (Table 40)): 15%
- RUMOB % visual injury Obs ([5]; Compound B 10 g/ha (Table 41)): 15%
- KCHSC % visual injury Obs ([6]; Compound B 10 g/ha (Table 40)): 73%
- KCHSC % visual injury Obs ([6]; Compound B 10 g/ha (Table 41)): 73%
- HELAN % visual injury Obs ([7]; Compound B 10 g/ha (Table 40)): 100%
- HELAN % visual injury Obs ([7]; Compound B 10 g/ha (Table 41)): 100%
- TRZAS % visual injury Obs ([8]; Compound B 10 g/ha (Table 36)): 0%
- TRZAS % visual injury Obs ([8]; Compound B 10 g/ha (Table 37)): 0%
- % visual injury, Obs ([8]; TRZAS, applied alone, 10 g/ha): 0%
- POLCO % visual injury Obs ([9]; Compound B 10 g/ha (Table 36)): 97%
- POLCO % visual injury Obs ([9]; Compound B 10 g/ha (Table 40)): 90%
- POLCO % visual injury Obs ([9]; Compound B 10 g/ha (Table 41)): 90%
- STEME % visual injury Obs ([10]; Compound B 10 g/ha (Table 40)): 90%
- STEME % visual injury Obs ([10]; Compound B 10 g/ha (Table 41)): 90%
- PAPRH-R % visual injury Obs ([11]; Compound B 10 g/ha (Table 38)): 95%
- PAPRH-R % visual injury Obs ([11]; Compound B 10 g/ha (Table 39)): 95%
- HORVS % visual injury Obs ([12]; Compound B 10 g/ha (Table 36)): 0%
- HORVS % visual injury Obs ([12]; Compound B 10 g/ha (Table 37)): 0%
- % visual injury, Obs ([12]; HORVS, applied alone, 10 g/ha): 0%
- VERVE % visual injury Obs [13]: 80%
- VIOTR % visual injury Obs ([14]; Compound B 10 g/ha (Table 40)): 8%
- VIOTR % visual injury Obs ([14]; Compound B 10 g/ha (Table 41)): 8%
- GLXMA % visual injury Obs ([15]; Compound B 10 g/ha (Table 40)): 73%
- GLXMA % visual injury Obs ([15]; Compound B 10 g/ha (Table 41)): 73%
- plant injury at 10 g/ha ([16]; Brassica napus, post-emergence, BRSNW, applied alone, 10 g/ha, read-out: % visual injury, Obs): 73%
- BRSNW % visual injury Obs ([16]; Compound B 10 g/ha (Table 36)): 73%
- BRSNW % visual injury Obs ([16]; Compound B 10 g/ha (Table 37)): 73%
- BRSNW % visual injury Obs ([16]; Compound B 10 g/ha (Table 39)): 93%
- ABUTH % visual injury Obs ([17]; Compound B 10 g/ha (Table 40)): 68%
- ABUTH % visual injury Obs ([17]; Compound B 10 g/ha (Table 41)): 68%
- % visual injury, Obs ([18]; AMARE, applied alone, 10 g/ha): 84%
- AMARE % visual injury Obs ([18]; Compound B 10 g/ha (Table 36)): 84%
- AMARE % visual injury Obs ([18]; Compound B 10 g/ha (Table 40)): 73%
- AMARE % visual injury Obs ([18]; Compound B 10 g/ha (Table 41)): 73%
- MATMT % visual injury Obs ([19]; Compound B 10 g/ha (Table 38)): 20%
- MATMT % visual injury Obs ([19]; Compound B 10 g/ha (Table 39)): 20%
- MATCH % visual injury Obs ([20]; Compound B 10 g/ha (Table 39)): 20%
- % visual injury, Obs ([20]; MATCH, applied alone, 10 g/ha): 18%

Compound: CCCCC(CC)COC(=O)COc1ccc(Cl)cc1C (stereo not drawn) [MCPA EHE]
- % visual injury (Obs) ([2]; CHEAL, alone 280 g/ha): 70%
- CHEAL % visual injury Obs ([2]; MCPA EHE 280 g/ha (Table 41)): 73%
- IPOHE % visual injury Obs ([3]; MCPA EHE 280 g/ha (Table 41)): 78%
- % visual injury (Obs) ([4]; CIRAR, alone 280 g/ha): 20%
- CIRAR % visual injury Obs ([4]; MCPA EHE 280 g/ha (Table 41)): 23%
- RUMOB % visual injury Obs ([5]; MCPA EHE 280 g/ha (Table 41)): 25%
- % visual injury (Obs) ([6]; KCHSC, alone 280 g/ha): 10%
- KCHSC % visual injury Obs ([6]; MCPA EHE 280 g/ha (Table 41)): 0%
- HELAN % visual injury Obs ([7]; MCPA EHE 280 g/ha (Table 41)): 90%
- % visual injury (Obs) ([8]; TRZAS, alone 280 g/ha): 0%
- POLCO % visual injury Obs ([9]; MCPA EHE 280 g/ha (Table 41)): 0%
- % visual injury (Obs) ([9]; POLCO, alone 280 g/ha): 10%
- STEME % visual injury Obs ([10]; MCPA EHE 280 g/ha (Table 41)): 0%
- % visual injury (Obs) ([12]; HORVS, alone 280 g/ha): 0%
- % visual injury (Obs) [21]: 80%
- VIOTR % visual injury Obs ([14]; MCPA EHE 280 g/ha (Table 41)): 0%
- GLXMA % visual injury Obs ([15]; MCPA EHE 280 g/ha (Table 41)): 30%
- % visual injury (Obs) ([16]; BRSNW, alone 280 g/ha): 60%
- ABUTH % visual injury Obs ([17]; MCPA EHE 280 g/ha (Table 41)): 5%
- % visual injury (Obs) ([18]; AMARE, alone 280 g/ha): 50%
- AMARE % visual injury Obs ([18]; MCPA EHE 280 g/ha (Table 41)): 30%
- % visual injury (Obs) ([20]; MATCH, alone 280 g/ha): 20%

Compound: O=C(O)c1nc(Cl)ccc1Cl [Clopyralid, clopyralid, reference compound]
- % visual injury [1, 27]: 0%
- % visual injury [22]: 0%
- % visual injury [23]: 35%
- % visual injury [24]: 0%
- % visual injury [10, 27]: 0%
- % visual injury [11, 27]: 0%
- % visual injury [14, 27]: 0%
- % visual injury [25]: 0%
- % visual injury [26]: 0%
